Data on one compound can be found in ChEMBL document CHEMBL1151356, “An investigation of the antitumor activity of Sesbania drummondii” (1981).

Calls of active or inactive are those of the source. The calls are words filed in the database; no cut-off is given here.

The subject of this experiment is P388. The experiment is described as follows: In vivo cytotoxicity against mouse P388 cells up to 1.4 mg/kg relative to control. In kind it is functional, organism-based. Further details: dose 1.4 mg/kg.

As to `O=C1NC(=O)[C@@]2(CC[C@@H](O)C2)c2ccncc21`, the result was inactive.
